Measurements from ChEMBL document CHEMBL1153108, “Neolignans from Piper kadsura and their anti-neuroinflammatory activity” (Bioorg Med Chem Lett, 2010).
Active and inactive are the calls of the source. No cut-off for these calls is given here.

Key:
BV-2 [1] = experiment: Antineuroinflammatory activity in mouse BV2 cells assessed as inhibition of LPS-induced nitric oxide production at 20 uM after 24 hrs by Griess reagent method; type: functional; conditions: for inhibition at 20 µM: BV-2, 24 h
BV-2 [2] = experiment: Antineuroinflammatory activity in mouse BV2 cells assessed as inhibition of LPS-induced nitric oxide production after 24 hrs by Griess reagent method; type: functional, cell-based; conditions: for IC50: BV-2, 24 h
[3] = Cytotoxicity against mouse BV2 cells by MTT assay; type: cell-based, BV-2; conditions: read-out: INH
[4] = biological target: T1, Nitric oxide synthase, inducible (Mus musculus) (UniProt P29477); experiment: Inhibition of iNOS in LPS-stimulated mouse BV2 cells at 25 to 100 uM after 24 hrs by Griess reagent method; type: cell-based; conditions: BV-2
T1 sequence (whole entry): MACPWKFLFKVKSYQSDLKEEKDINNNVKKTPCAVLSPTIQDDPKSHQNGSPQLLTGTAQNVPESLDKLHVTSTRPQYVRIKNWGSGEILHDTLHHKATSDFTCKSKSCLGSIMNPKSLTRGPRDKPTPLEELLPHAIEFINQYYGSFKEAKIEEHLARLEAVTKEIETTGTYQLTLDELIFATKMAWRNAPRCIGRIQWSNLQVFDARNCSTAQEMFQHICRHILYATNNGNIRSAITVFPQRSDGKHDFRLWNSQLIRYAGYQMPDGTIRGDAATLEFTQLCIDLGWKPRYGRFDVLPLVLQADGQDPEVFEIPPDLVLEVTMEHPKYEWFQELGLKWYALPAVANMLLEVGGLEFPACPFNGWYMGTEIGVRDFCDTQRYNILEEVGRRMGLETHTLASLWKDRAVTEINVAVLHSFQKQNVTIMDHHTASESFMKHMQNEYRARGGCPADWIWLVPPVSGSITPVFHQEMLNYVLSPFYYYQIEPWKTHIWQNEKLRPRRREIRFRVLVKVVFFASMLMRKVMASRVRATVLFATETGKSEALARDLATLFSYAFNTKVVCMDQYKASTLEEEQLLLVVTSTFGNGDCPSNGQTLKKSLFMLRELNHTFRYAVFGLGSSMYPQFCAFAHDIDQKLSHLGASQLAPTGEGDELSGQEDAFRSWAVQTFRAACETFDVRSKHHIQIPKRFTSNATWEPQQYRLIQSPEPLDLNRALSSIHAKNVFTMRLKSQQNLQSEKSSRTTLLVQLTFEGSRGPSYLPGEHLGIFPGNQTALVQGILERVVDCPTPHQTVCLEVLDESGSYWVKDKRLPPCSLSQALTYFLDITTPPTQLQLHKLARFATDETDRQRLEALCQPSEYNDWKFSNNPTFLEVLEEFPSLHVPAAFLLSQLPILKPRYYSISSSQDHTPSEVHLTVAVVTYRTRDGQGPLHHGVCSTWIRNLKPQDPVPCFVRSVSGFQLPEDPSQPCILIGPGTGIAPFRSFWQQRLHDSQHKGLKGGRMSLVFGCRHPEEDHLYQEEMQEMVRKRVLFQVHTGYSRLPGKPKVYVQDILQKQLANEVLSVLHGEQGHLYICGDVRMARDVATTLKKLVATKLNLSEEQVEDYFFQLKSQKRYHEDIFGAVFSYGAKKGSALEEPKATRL

[5] = Effect on nitric oxide radical scavenging activity in sodium nitroprusside solution assessed as nitric oxide release after 15 mins by Griess reagent method; type: physicochemical; conditions: 0.25 h
BV-2 [6] = experiment: Inhibition of LPS-induced iNOS expression in mouse BV2 cells at 5 to 20 uM after 6 hrs by Western blot analysis; type: functional, cell-based

IC50 (BV-2 [2]) [µM] | Structure (SMILES) | inhibition at 20 µM (BV-2 [1]) [%] | inhibition (BV-2 [1]) | other results
33.2 | C=CCc1ccc(OC)c(OC(C)C(OC(C)=O)c2ccc(OC)c(OC)c2)c1OC (stereo not given) | 27.2 | – | –
– | C=CCC1=C[C@]2(OC)[C@H](C)[C@@H](c3ccc(OC)c(OC)c3)[C@H](C1=O)[C@@H]2OC(C)=O | – | inactive | –
– | C=CC[C@]12C(=O)C=C(OC)[C@]3(OC)[C@@H]1[C@]3(C)[C@H]2c1ccc2c(c1)OCO2 | – | inactive | –
– | C=CCC1=C[C@]2(OC)C(=CC1=O)O[C@H](c1ccc3c(c1)OCO3)[C@H]2C [DENUDATIN A] | – | – | cytotoxicity [3]: 23.2%
16.8 | C=CCC1=CC(OC)(/C(C)=C/c2ccc3c(c2)OCO3)C(OC)=CC1=O (stereo not given) [FUTOQUINOL] | 55.3 | – | inhibition (BV-2 [2]): Dose-dependent effect
– | C=CCC1=C[C@@]2(OC)C(=CC1=O)O[C@H](c1ccc(OC)c(OC)c1)[C@H]2C [KADSURENONE] | – | inactive | cytotoxicity [3]: 21.3%
14.6 | C=CCC1=CC2=C(OC)[C@H](C1=O)[C@]2(C)[C@H](O)c1ccc2c(c1)OCO2 [PIPERKADSIN C] | 60.8 | – | Activity [4]: Active; Activity [5]: Not Active; Activity (BV-2 [6]): inactive; inhibition (BV-2 [2]): Dose-dependent effect
16.8 | CNC(=N)NCCC[C@H](N)C(=O)O [TILARGININE] | 55.3 | – | –
45.6 | C=CCC1=CC(OC)(/C(C)=C/c2ccc(OC)c(OC)c2)C(OC)=CC1=O (stereo not given) [WALLICHININE] | 18.5 | – | –
